The values that follow come from ChEMBL document CHEMBL1138572, “The synthesis of N-phenoxyethyl-1-substituted-1,2,3,4-tetrahydroisoquinolines and their alpha1-adrenoceptor blocking activity” (Eur J Med Chem, 2009).

The assay deals with T1, Adrenergic receptor alpha-1 (Rattus norvegicus, UniProt P15823+P23944+P43140).
T1 sequence (P15823 whole entry): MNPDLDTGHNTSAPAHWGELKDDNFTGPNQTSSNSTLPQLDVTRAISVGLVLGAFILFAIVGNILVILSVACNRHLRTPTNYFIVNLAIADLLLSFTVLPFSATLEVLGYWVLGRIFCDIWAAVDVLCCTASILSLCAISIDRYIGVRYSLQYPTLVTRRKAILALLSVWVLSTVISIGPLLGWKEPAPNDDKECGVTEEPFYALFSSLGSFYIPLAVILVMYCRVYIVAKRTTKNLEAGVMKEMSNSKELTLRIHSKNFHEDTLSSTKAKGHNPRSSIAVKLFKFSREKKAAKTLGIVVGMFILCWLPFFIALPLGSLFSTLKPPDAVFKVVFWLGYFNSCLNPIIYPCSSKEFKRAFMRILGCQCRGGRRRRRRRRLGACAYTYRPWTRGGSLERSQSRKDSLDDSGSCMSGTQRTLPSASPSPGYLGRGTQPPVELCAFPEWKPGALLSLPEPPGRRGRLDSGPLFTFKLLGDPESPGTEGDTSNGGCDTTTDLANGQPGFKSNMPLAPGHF
T1 sequence (P23944 whole entry): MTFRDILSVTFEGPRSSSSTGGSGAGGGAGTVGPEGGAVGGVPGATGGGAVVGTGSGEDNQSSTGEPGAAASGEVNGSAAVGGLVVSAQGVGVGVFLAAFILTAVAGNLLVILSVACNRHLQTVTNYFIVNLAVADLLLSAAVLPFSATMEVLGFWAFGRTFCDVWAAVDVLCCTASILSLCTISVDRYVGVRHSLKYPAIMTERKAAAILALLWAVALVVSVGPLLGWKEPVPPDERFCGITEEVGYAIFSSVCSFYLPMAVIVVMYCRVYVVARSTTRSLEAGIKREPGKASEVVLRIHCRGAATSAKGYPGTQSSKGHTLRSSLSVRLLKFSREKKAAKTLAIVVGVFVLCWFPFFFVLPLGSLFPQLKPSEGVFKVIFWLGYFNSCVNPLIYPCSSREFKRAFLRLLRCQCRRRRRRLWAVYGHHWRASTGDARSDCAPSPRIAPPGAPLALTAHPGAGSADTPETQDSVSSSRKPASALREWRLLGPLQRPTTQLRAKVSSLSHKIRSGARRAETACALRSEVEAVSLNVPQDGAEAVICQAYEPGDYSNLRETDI
T1 sequence (P43140 whole entry): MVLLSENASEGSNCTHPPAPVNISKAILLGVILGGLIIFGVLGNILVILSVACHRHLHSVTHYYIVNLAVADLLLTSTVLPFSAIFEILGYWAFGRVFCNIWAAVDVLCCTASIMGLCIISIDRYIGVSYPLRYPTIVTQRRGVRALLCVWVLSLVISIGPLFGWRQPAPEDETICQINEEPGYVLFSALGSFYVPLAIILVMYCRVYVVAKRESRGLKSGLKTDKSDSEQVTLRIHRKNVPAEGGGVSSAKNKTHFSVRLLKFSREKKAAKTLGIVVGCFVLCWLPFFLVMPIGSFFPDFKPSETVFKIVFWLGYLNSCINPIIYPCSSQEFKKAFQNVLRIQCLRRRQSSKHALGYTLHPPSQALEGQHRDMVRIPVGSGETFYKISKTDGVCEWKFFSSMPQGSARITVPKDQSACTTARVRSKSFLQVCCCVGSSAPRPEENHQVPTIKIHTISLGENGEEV
In words: Antagonist activity at alpha1 adrenoceptor in Sprague-Dawley rat aorta assessed as inhibition of norepinephrine-induced contraction treated 30 mins before norepinephrine challenge.
The term pA2 denotes a measure of antagonist potency on a negative log scale. As to `COc1cc2c(cc1OC)C(c1ccccc1N)N(CCOc1ccccc1)CC2` (stereo not drawn), the pA2 is 7.66.

Take `COc1ccc2c(c1)C(c1ccccc1N)N(CCOc1ccccc1)CC2` (stereo not drawn): the pA2 is listed as 7.36.

`O=[N+]([O-])c1ccccc1C1c2ccccc2CCN1CCOc1ccccc1` (stereo not drawn): the pA2 was found to be 7.94.

Take `COc1ccc(NCCOc2ccccc2)c(C2c3cc(OC)c(OC)cc3CCN2CCOc2ccccc2)c1` (stereo not drawn): the pA2 is recorded as 8.34.

As to `COc1ccc2c(c1)C(c1ccccc1NCCOc1ccccc1)N(CCOc1ccccc1)CC2` (stereo not drawn), the pA2 worked out at 6.72.

As to `COc1ccc2c(c1)C(c1ccccc1[N+](=O)[O-])N(CCOc1ccccc1)CC2` (stereo not drawn), the pA2 was found to be 8.11.

Regarding `COc1cc2c(cc1OC)C(c1ccccc1[N+](=O)[O-])N(CCOc1ccccc1)CC2` (stereo not drawn), the pA2 turned out to be 9.01.

As to `COc1cc2c(cc1OC)C(c1ccccc1NCCOc1ccccc1)N(CCOc1ccccc1)CC2` (stereo not drawn), the pA2 worked out at 8.33.

For the molecule `COc1ccc([N+](=O)[O-])c(C2c3cc(OC)c(OC)cc3CCN2CCOc2ccccc2)c1` (stereo not drawn), the pA2 amounted to 8.46.

In the case of `COc1cc2c(cc1OC)C(Cc1ccccc1)N(CCOc1ccccc1)CC2` (stereo not drawn), the pA2 is recorded as 8.23.

Take `c1ccc(OCCNc2ccccc2C2c3ccccc3CCN2CCOc2ccccc2)cc1` (stereo not drawn): the pA2 is recorded as 7.71.

Turning to `COc1ccc(N)c(C2c3cc(OC)c(OC)cc3CCN2CCOc2ccccc2)c1` (stereo not drawn), the pA2 is 7.51.

Consider `Nc1ccccc1C1c2ccccc2CCN1CCOc1ccccc1` (stereo not drawn), for which the pA2 came out at 5.46.
